According to ChEMBL document CHEMBL4342457, “Clerodane Diterpenoids Isolated from the Leaves of Casearia graveolens” (J Nat Prod, 2020):

Legend:
[1] = tested on: A549; assay: Cytotoxicity against human A549 cells after 48 hrs by MTT assay; format: functional, cell-based; details: A549, 48 h
[2] = tested on: HepG2; assay: Cytotoxicity against human HepG2 cells after 48 hrs by MTT assay; format: functional, cell-based; details: HepG2, 48 h
[3] = tested on: A549; assay: Induction of apoptosis human A549 cells assessed as live cells at 1 uM after 48 hrs by Annexin V-FITC/PI double staining based flow cytometric analysis (reference value: 88%); format: functional
[4] = tested on: A549; assay: Induction of apoptosis human A549 cells assessed as early apoptotic cells at 1 uM after 48 hrs by Annexin V-FITC/PI double staining based flow cytometric analysis (reference value: 4.3%); format: functional
[5] = tested on: A549; assay: Induction of apoptosis human A549 cells assessed as late apoptotic cells at 1 uM after 48 hrs by Annexin V-FITC/PI double staining based flow cytometric analysis (reference value: 7.4%); format: functional
[6] = tested on: A549; assay: Induction of apoptosis human A549 cells assessed as necrotic cells at 1 uM after 48 hrs by Annexin V-FITC/PI double staining based flow cytometric analysis (reference value: 0.3%); format: functional
[7] = tested on: A549; assay: Induction of apoptosis human A549 cells assessed as live cells at 2 uM after 48 hrs by Annexin V-FITC/PI double staining based flow cytometric analysis (reference value: 88%); format: functional
[8] = tested on: A549; assay: Induction of apoptosis human A549 cells assessed as early apoptotic cells at 2 uM after 48 hrs by Annexin V-FITC/PI double staining based flow cytometric analysis (reference value: 4.3%); format: functional
[9] = tested on: A549; assay: Induction of apoptosis human A549 cells assessed as late apoptotic cells at 2 uM after 48 hrs by Annexin V-FITC/PI double staining based flow cytometric analysis (reference value: 7.4%); format: functional
[10] = tested on: A549; assay: Induction of apoptosis human A549 cells assessed as necrotic cells at 2 uM after 48 hrs by Annexin V-FITC/PI double staining based flow cytometric analysis (reference value: 0.3%); format: functional
[11] = tested on: A549; assay: Induction of apoptosis human A549 cells assessed as live cells at 4 uM after 48 hrs by Annexin V-FITC/PI double staining based flow cytometric analysis (reference value: 88%); format: functional
[12] = tested on: A549; assay: Induction of apoptosis human A549 cells assessed as early apoptotic cells at 4 uM after 48 hrs by Annexin V-FITC/PI double staining based flow cytometric analysis (reference value: 4.3%); format: functional
[13] = tested on: A549; assay: Induction of apoptosis human A549 cells assessed as late apoptotic cells at 4 uM after 48 hrs by Annexin V-FITC/PI double staining based flow cytometric analysis (reference value: 7.4%); format: functional
[14] = tested on: A549; assay: Induction of apoptosis human A549 cells assessed as necrotic cells at 4 uM after 48 hrs by Annexin V-FITC/PI double staining based flow cytometric analysis (reference value: 0.3%); format: functional
[15] = tested on: A549; assay: Induction of apoptosis human A549 cells after 48 hrs by Annexin V-FITC/PI double staining based flow cytometric analysis; format: functional, cell-based
[16] = tested on: A549; assay: Induction of cell cycle arrest in human A549 cells assessed as accumulation at G1 phase at 1 uM incubated for 48 hrs by propidium iodide staining based flow cytometry (reference value: 29.60%); format: functional
[17] = tested on: A549; assay: Induction of cell cycle arrest in human A549 cells assessed as accumulation at G2 phase at 1 uM incubated for 48 hrs by propidium iodide staining based flow cytometry (reference value: 30.41%); format: functional
[18] = tested on: A549; assay: Induction of cell cycle arrest in human A549 cells assessed as accumulation at S phase at 1 uM incubated for 48 hrs by propidium iodide staining based flow cytometry (reference value: 39.99%); format: functional
[19] = tested on: A549; assay: Induction of cell cycle arrest in human A549 cells assessed as accumulation at G1 phase at 1.5 uM incubated for 48 hrs by propidium iodide staining based flow cytometry (reference value: 29.60%); format: functional
[20] = tested on: A549; assay: Induction of cell cycle arrest in human A549 cells assessed as accumulation at G2 phase at 1.5 uM incubated for 48 hrs by propidium iodide staining based flow cytometry (reference value: 30.41%); format: functional
[21] = tested on: A549; assay: Induction of cell cycle arrest in human A549 cells assessed as accumulation at S phase at 1.5 uM incubated for 48 hrs by propidium iodide staining based flow cytometry (reference value: 39.99%); format: functional
[22] = tested on: A549; assay: Induction of cell cycle arrest in human A549 cells assessed as accumulation at G1 phase at 2 uM incubated for 48 hrs by propidium iodide staining based flow cytometry (reference value: 29.60%); format: functional
[23] = tested on: A549; assay: Induction of cell cycle arrest in human A549 cells assessed as accumulation at G2 phase at 2 uM incubated for 48 hrs by propidium iodide staining based flow cytometry (reference value: 30.41%); format: functional
[24] = tested on: A549; assay: Induction of cell cycle arrest in human A549 cells assessed as accumulation at S phase at 2 uM incubated for 48 hrs by propidium iodide staining based flow cytometry (reference value: 39.99%); format: functional

Structure (SMILES): C=C/C(C)=C/C[C@]1(C)[C@H](C)C[C@H](O)[C@@]23C(=C[C@H](OC(=O)C(C)CC)C[C@@H]12)[C@@H](OC)O[C@H]3OC(C)=O (some centres not stated)
- IC50 [1]: > 10 µM
- IC50 [2]: > 10 µM

Structure (SMILES): C=C/C(C)=C/C[C@]1(C)[C@H](C)C[C@H](O)[C@@]23C(=C[C@H](OC(=O)CC(C)C)C[C@@H]12)[C@@H](OC)O[C@H]3OC
- IC50 [1]: > 10 µM
- IC50 [2]: > 10 µM

Structure (SMILES): C=C/C(C)=C/C[C@]1(C)[C@H](C)C[C@H](O)[C@@]23C(=C[C@H](OC(=O)C(C)C)C[C@@H]12)[C@@H](OC)O[C@@H]3OC(C)=O
- IC50 [1]: > 10 µM
- IC50 [2]: > 10 µM

Structure (SMILES): C=C/C(C)=C/C[C@]1(C)[C@H](C)C[C@H](O)[C@@]23C(=C[C@H](OC(=O)C(C)C)C[C@@H]12)[C@@H](OC)O[C@H]3OC
- IC50 [1]: > 10 µM
- IC50 [2]: > 10 µM

Structure (SMILES): C=C/C(C)=C/C[C@]1(C)[C@H](C)C[C@H](O)[C@@]23C(=C[C@H](OC(=O)CC(C)C)C[C@@H]12)[C@@H](OC(C)=O)O[C@H]3OC(C)=O
- IC50 [1]: 1.9 µM
- IC50 [2]: 4.6 µM
- Activity [3]: 74.5%
- Activity [4]: 6.2%
- Activity [5]: 18.2%
- Activity [6]: 1.1%
- Activity [7]: 52.7%
- Activity [8]: 26.7%
- Activity [9]: 19.9%
- Activity [10]: 0.8%
- Activity [11]: 5.4%
- Activity [12]: 15%
- Activity [13]: 74.5%
- Activity [14]: 5.1%
- Activity [15]: Dose-dependent effect
- Activity [16]: 70.25%
- Activity [17]: 9.01%
- Activity [18]: 20.75%
- Activity [19]: 70.31%
- Activity [20]: 4.3%
- Activity [21]: 25.39%
- Activity [22]: 79.44%
- Activity [23]: 5.19%
- Activity [24]: 15.37%

Structure (SMILES): C=C/C(C)=C/C[C@]1(C)[C@H](C)C[C@H](O)[C@@]23C(=C[C@H](OC(=O)CC(C)C)C[C@@H]12)[C@@H](OC)O[C@H]3OC(C)=O
- IC50 [1]: > 10 µM
- IC50 [2]: > 10 µM

Structure (SMILES): COC(=O)C[C@](O)(CCCC(C)(C)O)C(=O)O[C@@H]1C(OC)=C[C@]23CCCN2CCc2cc4c(cc2[C@H]13)OCO4 [OMACETAXINE MEPESUCCINATE]
- IC50 [1]: 0.0316 µM
- IC50 [2]: 0.0345 µM

Structure (SMILES): C=C/C(C)=C/C[C@]1(C)[C@H](C)C[C@H](O)[C@@]23C(=C[C@H](OC(=O)C(C)C)C[C@@H]12)[C@@H](OC)O[C@H]3OC(C)=O
- IC50 [1]: > 10 µM
- IC50 [2]: > 10 µM

Structure (SMILES): C=C/C(C)=C/C[C@]1(C)[C@H](C)C[C@H](O)[C@@]23C(=C[C@@H](OC(C)=O)C[C@@H]12)[C@@H](OC)O[C@H]3OC(C)=O
- IC50 [1]: > 10 µM
- IC50 [2]: > 10 µM

Structure (SMILES): C=C/C(C)=C/C[C@]1(C)[C@H](C)C[C@H](O)[C@@]23C(=C[C@@H](OC(=O)C(C)CC)C[C@@H]12)[C@@H](OC)O[C@H]3OC(C)=O (some centres not stated)
- IC50 [1]: > 10 µM
- IC50 [2]: > 10 µM
